Assay results as given in PubChem BioAssay (NCI).
Values joined by “and” are separate entries in the source; they are usually repeats but may differ in a detail not shown here. Equal entries are not always repeated.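 A five-concentration, 48-hour dose response in 96-well plates underlies each endpoint, interpolated linearly between surrounding concentrations. GI50 is the concentration that inhibits growth by half. TGI: concentration producing complete growth inhibition.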

Columns and labels:
Experiment in all cases: DTP human tumour cell line panel, 48 h
[1] = system: HT29 colon
[2] = system: A549 NSCLC
[3] = system: DU-145 prostate
[4] = system: UACC-257 melanoma
[5] = system: OVCAR-4 ovarian
[6] = system: NCI-H522 lung
[7] = system: MDA-MB-231 breast
[8] = system: HCT-15 colon
[9] = system: IGROV1 ovarian
[10] = system: HCT-116 colon

SMILES | GI50 [1] | TGI [1] | GI50 [2] | TGI [2] | GI50 [3] | TGI [3] | GI50 [4] | TGI [4] | GI50 [5] | TGI [5] | GI50 [6] | TGI [6] | GI50 [7] | TGI [7] | GI50 [8] | TGI [8] | GI50 [9] | TGI [9] | GI50 [10] | TGI [10]
C#CCOc1ccc2ncnc(Nc3ccc(NC(=O)C=C)cc3)c2c1 | 30.6 µM | > 100 µM | > 100 µM | > 100 µM | 25.4 µM | > 100 µM | 56.9 µM | > 100 µM | > 100 µM | > 100 µM | 11.8 µM | 39.7 µM | 29 µM | > 100 µM | 19.2 µM | > 100 µM | 49.8 µM | > 100 µM | 10.9 µM | 35.9 µM
CSC(=Nc1ccccc1)/N=C(\SCc1ccccc1)N(C)C | – | 1.05 µM | – | 4.63 µM | – | 2.13 µM | – | 3.23 µM | – | 2.43 µM | – | 0.54 µM | – | 2.39 µM | – | 2.38 µM | – | 2.45 µM | – | 1.38 µM
CC[C@H](C)[C@H](NC(=O)CN(C)C)C(=O)N(C)[C@H](C[C@@H](OC(C)=O)c1nc(C(=O)NC23CC(C(=O)OC)(C2)C3)cs1)C(C)C | 0.102 µM | > 25 µM | 1.62 µM | > 25 µM | 0.183 µM | > 25 µM | > 25 µM | > 25 µM | 4.64 µM | > 25 µM | 0.0511 µM | > 7.88 µM | 0.287 µM | > 12.2 µM | 1.01 µM | > 25 µM | 0.412 µM | > 25 µM | 0.381 µM | > 25 µM
COc1ccc(N(C)c2nc(N)nc3sc4c(c23)CCCC4)cc1 | < 0.01 µM | 12.1 µM | < 0.0149 µM | 17.3 µM | < 0.0166 µM | 11.2 µM | 8.12 µM | 26.3 µM | < 0.01 µM | 15.3 µM | < 0.01 µM | – | < 0.01 µM | 0.918 µM | < 0.01 µM | 13 µM | < 0.01 µM | 13 µM | < 0.01 µM | 11.3 µM
Cc1cc(Cl)nc(N(CCCNc2ccnc3cc(Cl)ccc23)Cc2ccco2)n1 | 1.38 µM | 6.46 µM | 3.28 µM | 13.9 µM | 3.48 µM | 14.7 µM | 2.21 µM | 5.76 µM | 2.31 µM | 12.2 µM | 2.93 µM | 12.4 µM | 2.13 µM | 5.93 µM | 1.99 µM | 7.61 µM | 1.92 µM | 8.26 µM | 1.42 µM | 4.17 µM
COc1cc2nc3cc([N+](=O)[O-])ccc3c(NCCNCC(C)(C)O)c2cc1OC | 0.327 µM | 1.4 µM | 1.22 µM | 5.64 µM | 0.44 µM | 2.34 µM | 1.94 µM | 4.19 µM | 0.672 µM | 2.99 µM | 0.256 µM | 1.04 µM | 0.451 µM | 2.41 µM | 3.4 µM | 12.8 µM | 0.457 µM | 2.16 µM | 0.368 µM | 1.54 µM
COc1ccc(/C(C#N)=C2C=C/C(=N/O)c3ccccc3\2)cc1 | 0.705 µM | 4.53 µM | 0.339 µM | 13.4 µM | 0.34 µM | 8.85 µM | 10.5 µM | 22.7 µM | 0.927 µM | 39.1 µM | 0.0891 µM | 0.838 µM | 0.27 µM | 0.796 µM | 0.168 µM | 4.52 µM | 0.523 µM | 17.6 µM | 0.328 µM | 11 µM
CN1CSC(=S)N(Cc2ccccc2)C1 | 3.36 µM | 11.6 µM | 30.2 µM | > 100 µM | 2.05 µM | 6.21 µM | 13.7 µM | 30.4 µM | 14.2 µM | 27.8 µM | 1.89 µM | 5.65 µM | 13.6 µM | 37.7 µM | 4.74 µM | 22 µM | 10.3 µM | 27.5 µM | 4.49 µM | 15.6 µM
COC(=O)C=Cc1ccc2nncnc2c1 (mixture of isomers) | – | > 100 µM | – | 56.4 µM | – | > 100 µM | – | 36.3 µM | – | > 100 µM | – | > 100 µM | – | > 100 µM | – | > 100 µM | – | > 100 µM | – | > 100 µM
CCn1c(-c2nonc2N)nc2cncc(C(=O)N3CC[C@H](N)C3)c21 | > 25 µM | > 25 µM | 7.29 µM | > 25 µM | > 25 µM | > 25 µM | > 25 µM | > 25 µM | > 25 µM | > 25 µM | > 9.56 µM | > 25 µM | > 25 µM | > 25 µM | 8.29 µM | > 25 µM | > 25 µM | > 25 µM | 9.9 µM | > 25 µM
O=C(Nc1nc2ccccc2s1)Nc1ccc([N+](=O)[O-])cc1Cl | 7.3 µM | 21.9 µM | 2.17 µM | 5.7 µM | 3.08 µM | 7.74 µM | 5.62 µM | 14.2 µM | 1.86 µM | 3.68 µM | 2.74 µM | 10.2 µM | 3.21 µM | 8.59 µM | 3.05 µM | 13 µM | 4.71 µM | 10.4 µM | 2.12 µM | 4.54 µM
COc1cc2c(=O)[nH]c3cc([N+](=O)[O-])ccc3c2cc1[N+](=O)[O-] | 2.93 µM | > 100 µM | 4.11 µM | > 100 µM | 4.63 µM | > 100 µM | 3.28 µM | > 100 µM | 5.16 µM | > 100 µM | 1.67 µM | > 100 µM | 6.1 µM | > 100 µM | 7.29 µM | > 100 µM | 3.87 µM | > 100 µM | 2.25 µM | > 100 µM
CCc1nc(N)nc(N)c1-c1ccc(N2CCNCC2)cc1 | – | > 100 µM | – | > 100 µM | – | > 100 µM | – | > 86 µM | – | > 100 µM | – | > 100 µM | – | > 100 µM | – | > 100 µM | – | > 100 µM | – | > 100 µM
CSc1ccc2c(c1)C(N1CCN(C)CC1)Cc1ccccc1S2 (stereo not drawn) | 1.8 µM | 6.84 µM and 3.65 µM | 2.17 µM | 24.2 µM and 5.72 µM | 2.04 µM | 31.4 µM and 4.38 µM | 1.54 µM | 5.43 µM and 3.03 µM | 2.6 µM | 9.66 µM and 9.89 µM | 1.76 µM | 10.2 µM and 3.29 µM | 1.85 µM | 13.7 µM and 3.65 µM | 2.83 µM | 16.4 µM and 7.41 µM | – | 7.3 µM and 4.91 µM | 1.98 µM | 16 µM and 4.03 µM
Cn1ncc(Cl)c1-c1cc(C(=O)N[C@H](CN)Cc2ccc(F)c(F)c2)oc1Cl | 1.15 µM and 0.346 µM | 15 µM and > 10 µM | 1.57 µM and 1.2 µM | 15 µM and > 10 µM | 4.25 µM and 2.48 µM | 17.8 µM and > 10 µM | 1.64 µM and 1.21 µM | 7.21 µM and 3.16 µM | 4.06 µM and 5.4 µM | 17.2 µM and > 10 µM | 4.82 µM and 2.04 µM | 16 µM and > 8.82 µM | 2.59 µM and 1.72 µM | 9.87 µM and 5.76 µM | 1.16 µM and 0.662 µM | 13.8 µM and > 10 µM | 0.0268 µM and 0.0201 µM | 3.62 µM and 1.43 µM | 1.67 µM and 1.76 µM | 8.09 µM and > 6.83 µM
c1ccc2c3c([nH]c2c1)C(c1ccc(C2NCCc4c2[nH]c2ccccc42)cc1)NCC3 (stereo not drawn) | 0.28 µM | 0.735 µM | 1.1 µM | 2.54 µM | 0.749 µM | 2.13 µM | 1.91 µM | 3.52 µM | 1.14 µM | 2.53 µM | 0.414 µM | 1.49 µM | 0.296 µM | 0.936 µM | 0.429 µM | 1.78 µM | 1.34 µM | 2.83 µM | 0.17 µM | 0.335 µM
